Reference: PMC4125290, “Cyclic di-GMP-dependent Signaling Pathways in the Pathogenic Firmicute Listeria monocytogenes” (PLoS Pathogens, 2014)

Assays:
Experiment in all cases: HPLC of c-di-GMP hydrolysis to pGpG
Type in all cases: biochemical
Conditions in all cases: 250 µM c-di-GMP, 1-5 µM enzyme, 37°C
[1] = molecular target: T1, PdeC (Lmo1914), MBP::PdeC (Listeria monocytogenes, UniProt Q8Y5Y9)
T1 construct: MBP fusion (pMAL-c2x), E. coli DH5alpha, amylose resin; MBP kept

[2] = molecular target: T2, PdeB (Lmo0131), PdeB::His6 (Listeria monocytogenes, UniProt Q8YAJ4)
T2 construct: tag kept
T2 sequence (Q8YAJ4 entry or part of it): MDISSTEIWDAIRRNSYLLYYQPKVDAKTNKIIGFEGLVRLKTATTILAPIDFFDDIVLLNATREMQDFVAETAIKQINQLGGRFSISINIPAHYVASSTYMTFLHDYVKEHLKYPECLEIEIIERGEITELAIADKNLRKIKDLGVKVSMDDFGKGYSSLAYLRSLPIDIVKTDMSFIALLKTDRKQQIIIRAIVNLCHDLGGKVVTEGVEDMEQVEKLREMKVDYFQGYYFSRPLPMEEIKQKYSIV

[3] = molecular target: T3, PdeD (Lmo0111), PdeD::His6 (Listeria monocytogenes, UniProt Q8YAK7)
T3 construct: tag kept
T3 sequence (Q8YAK7 entry or part of it): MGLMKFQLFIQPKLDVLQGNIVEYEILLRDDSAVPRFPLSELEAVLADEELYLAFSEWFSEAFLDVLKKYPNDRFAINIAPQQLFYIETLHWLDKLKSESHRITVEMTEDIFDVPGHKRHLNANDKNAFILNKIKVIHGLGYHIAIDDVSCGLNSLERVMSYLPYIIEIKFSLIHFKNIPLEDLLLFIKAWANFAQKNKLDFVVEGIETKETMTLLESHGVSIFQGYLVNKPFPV

T1 sequence (Q8Y5Y9 entry or part of it): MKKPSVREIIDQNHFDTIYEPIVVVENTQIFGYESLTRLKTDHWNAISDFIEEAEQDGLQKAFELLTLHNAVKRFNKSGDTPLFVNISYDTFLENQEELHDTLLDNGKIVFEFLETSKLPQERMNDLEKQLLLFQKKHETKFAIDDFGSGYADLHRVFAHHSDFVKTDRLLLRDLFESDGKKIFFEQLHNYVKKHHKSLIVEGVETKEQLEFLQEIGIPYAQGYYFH

## Nc1nc2c(ncn2[C@@H]2O[C@@H]3COP(=O)(O)O[C@H]4[C@@H](O)[C@H](n5cnc6c(=O)[nH]c(N)nc65)O[C@@H]4COP(=O)(O)O[C@H]3[C@H]2O)c(=O)[nH]1 [c-di-GMP]
[1]
  HPLC of c-di-GMP hydrolysis to pGpG: all three recombinant proteins possess c-di-GMP PDE activities in vitro
[2]
  HPLC of c-di-GMP hydrolysis to pGpG: all three recombinant proteins possess c-di-GMP PDE activities in vitro
[3]
  HPLC of c-di-GMP hydrolysis to pGpG: all three recombinant proteins possess c-di-GMP PDE activities in vitro
